US20240391923A1, “METHIONINE ADENOSYLTRANSFERASE 2A INHIBITOR FOR TREATING MTAP DELETION-TYPE CANCER” (SUZHOU GENHOUSE BIO CO., LTD., priority 2022, published 2024)
Like-named read-outs stand apart in the source and are kept apart here.

Columns and labels:
[1] = test system: SDMA in HCT116-MTAP-knockout cell line; test: Cell symmetric dimethylarginine (SDMA) test, In-cell Western, HCT116-MTAP-knockout; type: cell-based; settings: Homo sapiens, 96 h
[2] = test system: SDMA in human colon cancer cell line HCT116; test: Cell symmetric dimethylarginine (SDMA) test, In-cell Western, HCT116 (MTAP wild-type); type: cell-based; settings: Homo sapiens, HCT-116, 96 h
Text: MAT2A catalyzes the reaction of L-methionine and ATP to generate SAM, inorganic phosphonic acid, and inorganic diphosphonic acid. SAM is an important methyl donor, and is a substrate of arginine methyltransferase 5 (PRMT5). PRMT5 catalyzes SDMA modification of multiple proteins within a cell. The intracellular SDMA modification level was detected by ICW (In-cell Western), and the inhibition of the test compound on the enzymatic activity of intracellular MAT2A was indirectly reflected.
In the present application, the human colon cancer cell line HCT116 and the corresponding HCT116-MTAP-knockout cell line were seeded into a 96-well cell culture plate at an appropriate cell density. After 24 h, the cells were treated using the test compounds diluted 1:4 fold at the highest concentration of 6 μM for 6 gradients, and a DMSO treatment group was set up separately. The cells were cultured in a 37° C./5% CO2 incubator for 4 days. To test the inhibitory activity of the test compounds against tumor cell SDMA, the medium was discarded, and the plate was washed 3 times with PBST. 4% paraformaldehyde was then used at room temperature for fixation for 20 min. The fixation solution was discarded, the plate was washed 3 times with PBST, and a special blocking solution was added to each well for blocking at room temperature for 2 h. The blocking solution was discarded. After the plate was washed 3 times with PBST, the plate was incubated with SDMA antibody at 4° C. overnight. The next day, the plate was washed 3 times with PBST. The secondary antibody and DRAQ5 were diluted to an appropriate concentration with the blocking solution, and incubated at room temperature for 2 h; the plate was washed 3 times with PBST, and the fluorescence signals at 700 nm and 800 nm were detected using a Li—COR Odyssey two-color near-infrared laser imager.
The data was then processed. After the corresponding background value was subtracted from each well, statistical analysis was performed on the 800 nm/700 nm ratio for each well, a sigmoidal dose-inhibition curve was plotted using a non-linear regression model, and IC50 values were fitted and calculated. Inhibition Rate (%)=(1−SDMA dose/SDMA DMSO control)*100. SDMA dose is the value of the drug treatment group, and SDMA DMSO control is the value of the DMSO control group.

[3] = test system: HCT116-MTAP-knockout (−/−) cell strain; test: Tumor cell proliferation inhibition assay (CellTiter-Glo), HCT116-MTAP-knockout (-/-); type: cell-based; settings: Homo sapiens, 120 h, HCT116-MTAP-knockout (−/−) cells, 5-day treatment
Method: (§1) After the HCT116-MTAP-knockout (−/−) cell strain, the HCT116-MTAP wild-type(+/+)-cell strain, the DOHH-2 cell strain, or the Hut-78 cell strain was treated with the test compound for 5 days, the ATP level was measured using a CellTiter-Glo kit of Promega to evaluate the inhibition of the test compound against the growth of the tumor cell strain.
(§2) In the present application, the HCT116-MTAP-knockout (−/−) cell strain, the HCT116-MTAP wild-type (+/+)-cell strain, the DOHH-2 cell strain, or the Hut-78 cell strain was seeded into a 96-well cell culture plate at an appropriate cell density. After 24 h, the cells were treated using the test compounds diluted 1:3 fold at the highest concentration of 10 μM for 10 gradients, and a DMSO treatment group was set up separately. The cells were cultured in a 37° C./5% CO2 incubator for 5 days.

[4] = test system: HCT116-MTAP wild-type (+/+)-cell strain; test: Tumor cell proliferation inhibition assay (CellTiter-Glo), HCT116-MTAP wild-type (+/+); type: cell-based; settings: Homo sapiens, 120 h, HCT116-MTAP wild-type (+/+) cells, 5-day treatment
Method: as §1, §2

[5] = molecular target: MAT2A recombinant protein (Homo sapiens, UniProt P31153); test: MAT2A inhibitory activity (malachite green colorimetric enzyme assay); type: biochemical
Text: MAT2A catalyzes the reaction of L-methionine and ATP to generate S-adenosylmethionine (SAM), inorganic phosphonic acid, and inorganic diphosphonic acid. Malachite green reacts with inorganic phosphonic acid to generate a green product, and the enzyme activity of MAT2A can be indirectly reflected by detecting the content of the inorganic phosphonic acid in a sample.
The test compounds were formulated using DMSO and diluted 1:3 diluted through 10 concentration points to give a final starting concentration in the reaction system of 1000 nM. The test compounds at different concentrations described above were transferred to a 384-well plate. Experimental buffer (50 mM HEPES pH 7.5, 50 mM KCl, 10 mM MgCl2, 10 mM DTT) was prepared. 2×MAT2A recombinant protein was prepared using the buffer and added to a 384-well plate. A mixed solution of 2×L-methionine and ATP was prepared using the buffer, and added to a 384-well plate. The enzymatic reaction was started, and the reaction was carried out at room temperature for 60 min. 20 μL of a colorimetric detection reagent was added to the above system, and incubated at room temperature for 15 min. The absorbance at 630 nm was measured. The inhibition rate of the compound on the enzyme activity was calculated, and the inhibition rate value and the logarithm value of the compound concentration were fitted using non-linear regression (dose response-variable slope) to give the IC50 value of the test compound.

[6] = IC50 score class, read-out: Cell 96 h SDMA Inhibition (HCT116-MTAP−/−) (score)
[7] = read-out: Cell 96 h SDMA Inhibition (HCT116-MTAP−/−)
[8] = IC50 score class, read-out: Cell 96 h SDMA Inhibition (HCT116-MTAP+/+) (score)
[9] = read-out: Cell 96 h SDMA inhibition (HCT116-MTAP+/+)
[10] = IC50 score, read-out: Tumor cell 5-day relative growth inhibition (HCT116-MTAP−/−) (nM), score
[11] = IC50 value, read-out: Tumor cell 5-day relative growth inhibition (HCT116-MTAP−/−)
[12] = IC50 score, read-out: Tumor cell 5-day relative growth inhibition (HCT116-MTAP+/+) (nM), score
[13] = IC50 value, read-out: Tumor cell 5-day relative growth inhibition (HCT116-MTAP+/+)
[14] = IC50 score class, read-out: MAT2A Inhibition (score)

Sequence of MAT2A recombinant protein (P31153 whole entry): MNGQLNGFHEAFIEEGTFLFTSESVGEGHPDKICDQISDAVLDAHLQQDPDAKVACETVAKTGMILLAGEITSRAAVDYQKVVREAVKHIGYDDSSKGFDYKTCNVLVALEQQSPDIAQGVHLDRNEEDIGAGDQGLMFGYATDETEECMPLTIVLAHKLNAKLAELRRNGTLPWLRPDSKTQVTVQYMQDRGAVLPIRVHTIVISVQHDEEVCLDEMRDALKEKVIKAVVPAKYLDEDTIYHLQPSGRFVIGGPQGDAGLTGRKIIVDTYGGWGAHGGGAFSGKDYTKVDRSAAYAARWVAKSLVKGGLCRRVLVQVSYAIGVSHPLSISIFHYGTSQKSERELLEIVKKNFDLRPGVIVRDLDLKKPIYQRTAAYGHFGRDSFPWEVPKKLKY

| Structure (SMILES) | IC50 [1, 6] | IC50 [1, 7] | IC50 [2, 8] | IC50 [2, 9] | IC50 [3, 10] | IC50 [3, 11] | IC50 [4, 12] | IC50 [4, 13] | IC50 [5, 14] | IC50 ([5]; read-out: MAT2A Inhibition) |
| --- | --- | --- | --- | --- | --- | --- | --- | --- | --- | --- |
| Cn1cc2c(n1)c(=O)n(-c1cccnc1C(F)(F)F)c1nc(C(F)(F)F)ccc21 [Compound B80] | 200 to 1000 nM | 218 nM | > 3000 nM | > 3000 nM | < 500 nM | 81.7 nM | ≥ 2000 nM | 23300 nM |  |  |
| Cn1cc2c(n1)c(=O)n(-c1cccnc1C(F)(F)F)c1cc(Cl)c(F)cc21 (single isomer, unassigned) [Compound B389] | < 200 nM | 20 nM | > 3000 nM | > 10000 nM | < 500 nM | 223 nM | ≥ 2000 nM | > 10000 nM |  |  |
| O=c1c2nn(C(F)F)cc2c2ccc(C(F)(F)F)nc2n1-c1cccnc1 [Compound B255] | 200 to 1000 nM | 222 nM | > 3000 nM | 3440 nM | 500 to 2000 nM | 1160 nM | ≥ 2000 nM | 12800 nM | < 100 nM | 19.7 nM |
| Cn1cnc2c(=O)n(-c3cccnc3C(F)(F)F)c3cc(Cl)c(F)cc3c21 [Compound B351] | < 200 nM | 10 nM | > 3000 nM | > 10000 nM | 500 to 2000 nM | 765 nM | ≥ 2000 nM | > 10000 nM | < 100 nM | 26 nM |
| O=c1c2n[nH]cc2c2ccc(C(F)(F)F)nc2n1-c1cccc2[nH]ncc12 [Compound B239] | < 200 nM | 11 nM | > 3000 nM | > 10000 nM | < 500 nM | 50 nM | < 500 nM | 477 nM | < 100 nM | 14.7 nM |
| O=c1c2nn(C3CC3)cc2c2ccc(C(F)(F)F)nc2n1-c1cccc2[nH]ncc12 [Compound B250] | 200 to 1000 nM | 110 nM | > 3000 nM | 3970 nM | < 500 nM | 299 nM | 500 to 2000 nM | 939 nM | < 100 nM | 28.1 nM |
| Cn1cnc2c(=O)n(-c3cccnc3C3CC3)c3cc(Cl)c(F)cc3c21 [Compound B336] | < 200 nM | 18.7 nM | > 3000 nM | > 10000 nM | < 500 nM | 145 nM | ≥ 2000 nM | 9700 nM | < 100 nM | 12 nM |
| Cn1cc2c(n1)c(=O)n(-c1cccnc1C(F)(F)F)c1cc(Cl)ccc21 [Compound B68] | 200 to 1000 nM | 213 nM | > 3000 nM | > 3000 nM | < 500 nM | 41.4 nM | ≥ 2000 nM | > 2000 nM | < 100 nM | 45.1 nM |
| Cn1cc2c(n1)c(=O)n(-c1cccc3[nH]ncc13)c1nc(C(F)(F)F)c(F)cc21 [Compound B274] | 200 to 1000 nM | 147 nM | 200 to 1000 nM | 240 nM | < 500 nM | 72.5 nM | ≥ 2000 nM | > 10000 nM | < 100 nM | 9 nM |
| CN1CCN(c2nccc(Cn3cc4c(n3)c(=O)n(-c3cccc5[nH]ncc35)c3cc(Cl)c(F)cc43)n2)CC1 [Compound B333] | < 200 nM | 98.5 nM | > 3000 nM | > 10000 nM | < 500 nM | 284 nM | 500 to 2000 nM | 550 nM | < 100 nM | 100 nM |
| CN1CCN(c2ccc(Cn3cc4c(n3)c(=O)n(-c3cccc5[nH]ncc35)c3cc(Cl)c(F)cc43)cn2)CC1 [Compound B268] | 1000 to 3000 nM | 1240 nM | > 3000 nM | > 10000 nM | ≥ 2000 nM | 3650 nM | ≥ 2000 nM | 5240 nM | < 100 nM | 81 nM |
| Cn1cc2c(n1)c(=O)n(-c1cccnc1C1CC1)c1nc(C3CC3)c(F)cc21 [Compound B359] | < 200 nM | 6.2 nM | > 3000 nM | > 10000 nM | < 500 nM | 87 nM | ≥ 2000 nM | > 10000 nM | < 100 nM | 9.6 nM |
| O=c1c2nn(C(F)F)cc2c2cc(F)c(Cl)cc2n1-c1cccnc1C1CC1 [Compound B337] |  |  | > 3000 nM | > 10000 nM | 500 to 2000 nM | 579 nM | ≥ 2000 nM | > 10000 nM |  |  |
| Cc1n[nH]c2cccc(-n3c(=O)c4nn(C)cc4c4ccc(Cl)cc43)c12 [Compound B277] | < 200 nM | 61 nM |  |  | < 500 nM | 327 nM | 500 to 2000 nM | 875 nM | < 100 nM | 83 nM |
| Cn1cc2c(n1)c(=O)n(-c1cccc3ccccc13)c1cc(Cl)c(F)cc21 [Compound B370] | 200 to 1000 nM | 554 nM | > 3000 nM | > 10000 nM | ≥ 2000 nM | > 10000 nM | ≥ 2000 nM | > 10000 nM | < 100 nM | 58 nM |
| O=c1c2n[nH]cc2c2cc(F)c(Cl)cc2n1-c1cccc2[nH]ncc12 [Compound B263] | < 200 nM | 3.7 nM | 200 to 1000 nM | 687 nM | < 500 nM | 21 nM | < 500 nM | 173 nM | < 100 nM | 9.3 nM |
| Cc1c2c(nn1C(F)F)c(=O)n(-c1cccnc1)c1nc(C(F)(F)F)ccc21 [Compound B252] | 200 to 1000 nM | 202 nM |  |  | < 500 nM | 378 nM | 500 to 2000 nM | 1230 nM | < 100 nM | 19.3 nM |
